Measured values published in patent US20090118286A1, “Heterobicyclic Acrylamides” (Bayer Cropscience AG, priority 2005, published 2009).

Assay: log P determination by HPLC (EEC Directive 79/831 Annex V.A8, gradient method)
Type: physicochemical

Structure (SMILES) | Physical data: log P | Physical data: logP
COCC(C)NC(=O)/C=C/c1c(-c2cccc(C(F)(F)F)c2)nc2sc(C(F)(F)F)nn12 (centres unmarked) [Example 0382] | 3.68 | –
CC(C)C(C)NC(=O)/C=C/c1c(-c2cccc(C(F)(F)F)c2)nc2sc(C(F)(F)F)nn12 (centres unmarked) [Example 0387] | 4.46 | –
CC(NC(=O)/C=C/c1c(-c2cccc(C(F)(F)F)c2)nc2sc(C(F)(F)F)nn12)C(F)(F)F (centres unmarked) [Example 0388] | 4.27 | –
CC(NC(=O)/C=C/c1c(-c2cccc(C(F)(F)F)c2)nc2sc(C(F)(F)F)nn12)c1ccccc1 (centres unmarked) [Example 0402] | 4.46 | –
CCC(NC(=O)C=Cc1c(-c2cccc(C(F)(F)F)c2)nc2sc(C(F)(F)F)nn12)c1ccccc1 (centres unmarked) [Example 0403] | 4.72 | –
CC(COc1ccccc1)NC(=O)/C=C/c1c(-c2cccc(C(F)(F)F)c2)nc2sc(C(F)(F)F)nn12 (centres unmarked) [Example 0407] | 4.67 | –
CCC(NC(=O)C=Cc1c(-c2cccc(C(F)(F)F)c2)nc2sc(C(F)(F)F)nn12)C1CCCCC1 (centres unmarked) [Example 0409] | 5.48 | –
O=C(/C=C/c1c(-c2cccc(C(F)(F)F)c2)nc2sc(C(F)(F)F)nn12)NOCC1CC1 [Example 0424] | 3.81 | –
CC(ONC(=O)/C=C/c1c(-c2cccc(C(F)(F)F)c2)nc2sc(C(F)(F)F)nn12)c1ccccc1 (centres unmarked) [Example 0426] | 4.37 | –
CCC(CC)NC(=O)/C=C/c1c(-c2cccc(C(F)(F)F)c2)nc2sc(C(F)(F)F)nn12 [Example 0428] | 4.41 | –
CN(C)C(=O)/C=C/c1c(-c2cccc(C(F)(F)F)c2)nc2sc(C(F)(F)F)nn12 [Example 0429] | 3.68 | –
CCN(C)C(=O)/C=C/c1c(-c2cccc(C(F)(F)F)c2)nc2sc(C(F)(F)F)nn12 [Example 0430] | 4.05 | –
C=CCN(C)C(=O)/C=C/c1c(-c2cccc(C(F)(F)F)c2)nc2sc(C(F)(F)F)nn12 [Example 0431] | 4.22 | –
CON(C)C(=O)/C=C/c1c(-c2cccc(C(F)(F)F)c2)nc2sc(C(F)(F)F)nn12 [Example 0433] | 4.01 | –
CCN(CC)C(=O)/C=C/c1c(-c2cccc(C(F)(F)F)c2)nc2sc(C(F)(F)F)nn12 [Example 0434] | 4.42 | –
O=C(/C=C/c1c(-c2cccc(C(F)(F)F)c2)nc2sc(C(F)(F)F)nn12)N1CCCCC1 [Example 0435] | 4.51 | –
O=C(/C=C/c1c(-c2cccc(C(F)(F)F)c2)nc2sc(C(F)(F)F)nn12)N1CCOCC1 [Example 0436] | 3.55 | –
CC(C)(C)NC(=O)/C=C/c1c(-c2ccccc2F)nc2sc(C(F)(F)F)nn12 [Example 0444] | 3.55 | –
CCN(CC)C(=O)/C=C/c1c(-c2ccccc2F)nc2sc(C(F)(F)F)nn12 [Example 0505] | 3.45 | –
O=C(/C=C/c1c(-c2ccccc2F)nc2sc(C(F)(F)F)nn12)N1CCCCC1 [Example 0506] | 3.59 | –
O=C(/C=C/c1c(-c2ccccc2F)nc2sc(C(F)(F)F)nn12)N1CCOCC1 [Example 0507] | 2.7 | –
CC(COc1ccccc1)NC(=O)/C=C/c1c(-c2ccc(Cl)cc2Cl)nc2sc(C(F)(F)F)nn12 (centres unmarked) [Example 0546] | 4.56 | –
CC(NC(=O)/C=C/c1c(-c2ccc(Cl)cc2Cl)nc2sc(C(F)(F)F)nn12)c1ccccn1 (centres unmarked) [Example 0555] | 2.84 | –
O=C(/C=C/c1c(-c2ccc(Cl)cc2Cl)nc2sc(C(F)(F)F)nn12)NOCC1CC1 [Example 0563] | 3.68 | –

Structure (SMILES) | Physical data: log P | Physical data: logP
CC(ONC(=O)/C=C/c1c(-c2ccc(Cl)cc2Cl)nc2sc(C(F)(F)F)nn12)c1ccccc1 (centres unmarked) [Example 0565] | 4.23 | –
CCC(CC)NC(=O)/C=C/c1c(-c2ccc(Cl)cc2Cl)nc2sc(C(F)(F)F)nn12 [Example 0567] | 4.32 | –
CN(C)C(=O)/C=C/c1c(-c2ccc(Cl)cc2Cl)nc2sc(C(F)(F)F)nn12 [Example 0568] | 3.46 | –
CCN(C)C(=O)/C=C/c1c(-c2ccc(Cl)cc2Cl)nc2sc(C(F)(F)F)nn12 [Example 0569] | 3.82 | –
C=CCN(C)C(=O)/C=C/c1c(-c2ccc(Cl)cc2Cl)nc2sc(C(F)(F)F)nn12 [Example 0570] | 4.0 | –
CON(C)C(=O)/C=C/c1c(-c2ccc(Cl)cc2Cl)nc2sc(C(F)(F)F)nn12 [Example 0572] | 3.8 | –
O=C(/C=C/c1c(-c2ccc(Cl)cc2Cl)nc2sc(C(F)(F)F)nn12)N1CCCCC1 [Example 0574] | 4.31 | –
O=C(/C=C/c1c(-c2ccc(Cl)cc2Cl)nc2sc(C(F)(F)F)nn12)N1CCOCC1 [Example 0575] | 3.34 | –
O=C(C=Cc1c(-c2ccc(F)cc2Cl)nc2sc(C(F)(F)F)nn12)NC1CCCCC1C(F)(F)F (centres unmarked) [Example 0600] | 4.12 | –
O=C(C=Cc1c(-c2ccc(F)cc2Cl)nc2sc(C(F)(F)F)nn12)NC(CC(F)(F)F)c1ccccc1 (centres unmarked) [Example 0609] | 4.25 | –
CCN(CC)C(=O)/C=C/c1c(-c2ccc(F)cc2Cl)nc2sc(C(F)(F)F)nn12 [Example 0644] | – | 3.79
O=C(/C=C/c1c(-c2ccc(F)cc2Cl)nc2sc(C(F)(F)F)nn12)N1CCCC(C(F)(F)F)C1 (centres unmarked) [Example 0648] | – | 4.28
COc1ccc(-c2nc3sc(C(F)(F)F)nn3c2/C=C/C(=O)NC(C)C)cc1OC [Example 0652] | – | 2.85
COc1ccc(-c2nc3sc(C(F)(F)F)nn3c2/C=C/C(=O)NC2CC2)cc1OC [Example 0656] | – | 2.64
COc1ccc(-c2nc3sc(C(F)(F)F)nn3c2/C=C/C(=O)NC2CCC2)cc1OC [Example 0657] | – | 3.03
COc1ccc(-c2nc3sc(C(F)(F)F)nn3c2/C=C/C(=O)NC2CCCC2)cc1OC [Example 0658] | – | 3.26
COc1ccc(-c2nc3sc(C(F)(F)F)nn3c2/C=C/C(=O)NC2CCCCC2)cc1OC [Example 0659] | – | 3.55
COc1ccc(-c2nc3sc(C(F)(F)F)nn3c2/C=C/C(=O)NCC2CC2)cc1OC [Example 0660] | – | 2.95
CCC(C)NC(=O)/C=C/c1c(-c2ccc(OC)c(OC)c2)nc2sc(C(F)(F)F)nn12 (centres unmarked) [Example 0661] | – | 3.14
CCCC(C)NC(=O)/C=C/c1c(-c2ccc(OC)c(OC)c2)nc2sc(C(F)(F)F)nn12 (centres unmarked) [Example 0662] | – | 3.5
COCC(C)NC(=O)/C=C/c1c(-c2ccc(OC)c(OC)c2)nc2sc(C(F)(F)F)nn12 (centres unmarked) [Example 0663] | – | 2.7
COc1ccc(-c2nc3sc(C(F)(F)F)nn3c2/C=C/C(=O)NC(C)C(C)C)cc1OC (centres unmarked) [Example 0668] | – | 3.41
COc1ccc(-c2nc3sc(C(F)(F)F)nn3c2/C=C/C(=O)NC(C)C(F)(F)F)cc1OC (centres unmarked) [Example 0669] | – | 3.29
COc1ccc(-c2nc3sc(C(F)(F)F)nn3c2/C=C/C(=O)NC(C)c2ccccc2)cc1OC (centres unmarked) [Example 0683] | – | 3.5

Structure (SMILES) | Physical data: log P | Physical data: logP
CCC(NC(=O)/C=C/c1c(-c2ccc(OC)c(OC)c2)nc2sc(C(F)(F)F)nn12)c1ccccc1 (centres unmarked) [Example 0684] | – | 3.76
COc1ccc(-c2nc3sc(C(F)(F)F)nn3c2/C=C/C(=O)NC(C)COc2ccccc2)cc1OC (centres unmarked) [Example 0689] | – | 3.72
CCC(NC(=O)/C=C/c1c(-c2ccc(OC)c(OC)c2)nc2sc(C(F)(F)F)nn12)C1CCCCC1 (centres unmarked) [Example 0691] | – | 4.46
COc1ccc(-c2nc3sc(C(F)(F)F)nn3c2/C=C/C(=O)NC(C)c2ccccn2)cc1OC (centres unmarked) [Example 0698] | – | 2.16
COc1ccc(-c2nc3sc(C(F)(F)F)nn3c2/C=C/C(=O)NOCC2CC2)cc1OC [Example 0706] | – | 2.88
COc1ccc(-c2nc3sc(C(F)(F)F)nn3c2/C=C/C(=O)NOC(C)c2ccccc2)cc1OC (centres unmarked) [Example 0708] | – | 3.37
CCC(CC)NC(=O)/C=C/c1c(-c2ccc(OC)c(OC)c2)nc2sc(C(F)(F)F)nn12 [Example 0710] | – | 3.37
CCN(CC)C(=O)/C=C/c1c(-c2ccc(OC)c(OC)c2)nc2sc(C(F)(F)F)nn12 [Example 0716] | – | 3.53
COc1ccc(-c2nc3sc(C(F)(F)F)nn3c2/C=C/C(=O)N2CCCCC2)cc1OC [Example 0717] | – | 3.41
COc1ccc(-c2nc3sc(C(F)(F)F)nn3c2/C=C/C(=O)N2CCOCC2)cc1OC [Example 0718] | – | 2.58
CC(C)CNC(=O)/C=C/c1c(-c2ccccc2Cl)nc2sc(C(C)(C)C)nn12 [Example 0794] | – | 3.72
CC(NC(=O)/C=C/c1c(-c2ccccc2Cl)nc2sc(C(C)(C)C)nn12)C(F)(F)F (centres unmarked) [Example 0795] | – | 3.88
CC(C)C(NC(=O)/C=C/c1c(-c2ccccc2Cl)nc2sc(C(C)(C)C)nn12)C(F)(F)F (centres unmarked) [Example 0796] | – | 4.46
CC(C)(C)CNC(=O)/C=C/c1c(-c2ccccc2Cl)nc2sc(C(C)(C)C)nn12 [Example 0797] | – | 4.06
CC(C)CCNC(=O)/C=C/c1c(-c2ccccc2Cl)nc2sc(C(C)(C)C)nn12 [Example 0798] | – | 4.11
CC(C)(C)c1nn2c(/C=C/C(=O)NC3CCC(C(F)(F)F)CC3)c(-c3ccccc3Cl)nc2s1 (centres unmarked) [Example 0799] | – | 4.32
CC(C)(C)c1nn2c(/C=C/C(=O)NCC(F)(F)F)c(-c3ccccc3Cl)nc2s1 [Example 0800] | – | 3.61
CC(C)(C)NC(=O)/C=C/c1c(-c2ccccc2Cl)nc2sc(C(C)(C)C)nn12 [Example 0801] | – | 3.95
CC(C)NC(=O)/C=C/c1c(-c2ccccc2Cl)nc2sc(C(C)(C)C)nn12 [Example 0802] | – | 3.33
CCC(C)NC(=O)/C=C/c1c(-c2ccccc2Cl)nc2sc(C(C)(C)C)nn12 (centres unmarked) [Example 0803] | – | 3.67
CC(C)(C)CCNC(=O)/C=C/c1c(-c2ccccc2Cl)nc2sc(C(C)(C)C)nn12 [Example 0805] | – | 4.4
CC(C)(C)c1nn2c(/C=C/C(=O)NC3CC3)c(-c3ccccc3Cl)nc2s1 [Example 0807] | – | 3.07
CC(C)(C)c1nn2c(/C=C/C(=O)NC3CCC3)c(-c3ccccc3Cl)nc2s1 [Example 0808] | – | 3.52
